Data published in article PMC8136874, “The entry reaction of the plant shikimate pathway is subjected to highly complex metabolite-mediated regulation” (The Plant Cell, 2021).
Where two headings read alike, the source gives them in different places.

Legend:
[1] = system: total DHS activity in spinach leaf extracts; experiment: DHS activity assay of crude extracts from spinach mature leaves; format: biochemical, Spinacia oleracea; conditions: 1 mM
Protocol: (§1) Spinach (S. oleracea) leaves were purchased at a local grocery store. For de-etiolated spinach seedlings, spinach was germinated on the soil and grown in the dark for 3 days, followed by exposure to normal growth light for 1 day for de-etiolation. More than 20 g of fully expanded mature leaves or whole de-etiolated seedlings were harvested and ground to a fine powder in a mortar and pestle with liquid nitrogen. After dissolving in 100 mL extraction buffer (20 mM HEPES [pH 7.6], 1 mM DTT and 0.1% β-mercaptoethanol) and filtrating with Miracloth, the samples were centrifuged at 10,000 × g for 10 min and subsequently at 50,000 × g for 30 min. […] The concentrated solution was desalted twice by Sephadex G50 column size-exclusion chromatography (GE Healthcare) into 1 mL of 50 mM HEPES (pH 7.4) and quantified by the Bradford assay ([Bradford, 1976]). […]
(§2) Unless otherwise noted, DHS enzymatic activity was monitored as previously described ([Liu et al., 2008]), with several optimizations for high-throughput assays with eight-strip PCR tubes and a thermal cycler. […] The absorbance of the pink supernatant was read at 549 nm with the microplate reader (Infinite 200 PRO, TECAN, Männedorf, Switzerland) to calculate DAHP production with the molar extinction coefficient at 549 nm (ε = 549 nm) of 4.5 × 10^4/M/cm. […]

AthDHS1 = molecular target: T1, AthDHS1 (Arabidopsis thaliana, UniProt P29976); experiment: DHS enzymatic activity assay with recombinant AthDHS1; format: biochemical; conditions: for effect on AthDHS1 activity (in words): 1 mM effector; for IC50: varied effector concentrations, read-out: IC50 of AthDHS1 inhibition
T1 construct: AthDHS1; residues 49–525; hexa-histidine; made in house; host or cells: E. coli Rosetta2 (DE3), pET28a
Protocol: (§3) Unless otherwise noted, DHS enzymatic activity was monitored as previously described ([Liu et al., 2008]), with several optimizations for high-throughput assays with eight-strip PCR tubes and a thermal cycler. The enzyme solution (7.7 µL) containing 50 mM HEPES (pH 7.4) was preincubated with an effector molecule(s) at room temperature for 10 min. For assays using recombinant protein and enzyme fraction isolated from plant leaves, 0.01–0.05 µg and approximately 50 µg of proteins were used, respectively. After adding 0.5 µL of 0.1 M DTT, the samples were further incubated at room temperature for 15 min. […] The enzyme reaction was started by adding 6.8 µL of the substrate solution, then incubated at 37°C for 20 min, and terminated by adding 30 µL of 0.6 M trichloroacetic acid. After brief centrifugation, 5 µL of 200 mM NaIO4 (sodium meta-periodate) in 9 N H3PO4 was added to oxidize the enzymatic product and incubate at 25°C for 20 min. To stop the oxidation reaction, 20 µL of 0.75 M NaAsO2 (sodium arsenite), which was dissolved in 0.5 M Na2SO4 and 0.05 M H2SO4, was immediately mixed. After 5 min of incubation at room temperature, one-third of the sample solution was transferred to a new tube to be mixed with 50 µL of 40 mM thiobarbituric acid and incubated at 99°C for 15 min in a thermal cycler. Developed pink chromophore was extracted by putting the final solutions with 600 µL of cyclohexanone in eight-strip solvent-resistant plastic tubes, mixing vigorously and centrifuging them at 4,500 × g for 3 min to separate water- and cyclohexanone-based layers. The absorbance of the pink supernatant was read at 549 nm with the microplate reader (Infinite 200 PRO, TECAN, Männedorf, Switzerland) to calculate DAHP production with the molar extinction coefficient at 549 nm (ε = 549 nm) of 4.5 × 10^4/M/cm. Reaction mixtures with boiled enzyme or without any substrates were run in parallel and used as negative controls to estimate the background signal for recombinant enzymes or enzymatic fraction from plant tissues, respectively.
(§4) For determination of kinetic parameters, the data of enzymatic activities measured in the presence of various concentration of substrates were calculated with the Michaelis–Menten equation in Graphpad Prism 6 (GraphPad Software, San Diego, CA, USA).

[2] = system: DHS activity from the spinach seedling extracts; experiment: DHS activity assay of crude extracts from de-etiolated spinach seedlings; format: biochemical, Spinacia oleracea; conditions: 1 mM
Protocol: as §1, §2

AthDHS3 = AthDHS3 (Arabidopsis thaliana, UniProt Q9SK84); experiment: DHS enzymatic activity assay with recombinant AthDHS3; format: biochemical; conditions: for effect on AthDHS3 activity (in words): 1 mM effector
Protocol: as §3, §4

[3] = system: total DHS activity in Arabidopsis leaf extracts; experiment: DHS activity assay of crude extracts from Arabidopsis mature leaves; format: biochemical, Arabidopsis thaliana; conditions: 1 mM; Col-0
AthDHS2 = molecular target: T2, AthDHS2 (Arabidopsis thaliana, UniProt Q00218); experiment: DHS enzymatic activity assay with recombinant AthDHS2; format: biochemical; conditions: for IC50: varied effector concentrations, read-out: IC50 of AthDHS2 inhibition
T2 construct: AthDHS2; residues 34–507; hexa-histidine; made in house; host or cells: E. coli Rosetta2 (DE3), pET28a

[4] = system: DHS activity from mung bean (Vigna radiata) seedlings; design: method as in Rubin and Jensen, 1985; conditions: ref Rubin and Jensen, 1985; cited from earlier work
[5] = system: DHS activity from spinach (Spinacia oleracea) leaves; design: method as in Doong et al., 1993; conditions: ref Doong et al., 1993; cited from earlier work
[6] = system: root growth of Arabidopsis Col-0 and dhs mutants; experiment: Chemical feeding experiment, root length of 10-day-old seedlings; format: in vivo, Arabidopsis thaliana; conditions: for IC50: Arabidopsis thaliana
Protocol: (§5) Chemical feeding experiments were carried out as described previously ([de Oliveira et al., 2019]) with some modifications. Seedlings were grown on agar plates containing 0.5 MS with 1% sucrose, 0.8% agar, and 2.5 mM MES at pH 5.7 in the growth chamber where we grew other plants in soil. AAAs and/or shikimate were added to autoclaved media after cooling down to temperatures below 55°C. Plants were grown on the same plate side by side to minimize environmental effects, and multiple plates were prepared to obtain replications. Root lengths of 10-day-old seedlings were quantified by ImageJ.

[7] = system: DHS activities from maize (Zea mays) shoots; design: method as in Graziana and Boudet, 1980; conditions: 1 mM; ref Graziana and Boudet, 1980; cited from earlier work
[8] = system: carrot (Daucus carota) DHS; design: method as in Suzich et al., 1985; conditions: ref Suzich et al., 1985; cited from earlier work
[9] = system: AthDHS1 and AthDHS2 mixtures; experiment: DHS assay using mixtures of AthDHS1 and AthDHS2 recombinant enzymes; format: biochemical, Arabidopsis thaliana; conditions: 1 mM effector; molar ratios 0, 0.25, 0.5, 0.75, 1
Protocol: Next, we thought that the presence of non-inhibited DHS isoforms (e.g. AthDHS1) may affect the AAA sensitivity of AthDHS2, given that AthDHSs are known to function as tetrameric or dimeric forms ([Suzich et al., 1985]; [Pinto et al., 1986]; [Webby et al., 2005]). To test this, the recombinant enzymes of AAA non-inhibited AthDHS1 and AAA-inhibited AthDHS2 were mixed with different ratios (0, 0.25, 0.5, 0.75, and 1) and DHS activity assays were conducted with different inhibitors. Based on the kinetic parameters and the regulatory behaviors of individual AthDHSs, the expected level of DHS activity was first calculated and plotted (dotted lines in Figure 5, D, see the “Materials and methods” section). […] Similar results were obtained for the AthDHS2 and AthDHS3 mixture (Figure 5, E).
Unless otherwise noted, DHS enzymatic activity was monitored as previously described ([Liu et al., 2008]), with several optimizations for high-throughput assays with eight-strip PCR tubes and a thermal cycler. The enzyme solution (7.7 µL) containing 50 mM HEPES (pH 7.4) was preincubated with an effector molecule(s) at room temperature for 10 min. For assays using recombinant protein and enzyme fraction isolated from plant leaves, 0.01–0.05 µg and approximately 50 µg of proteins were used, respectively. After adding 0.5 µL of 0.1 M DTT, the samples were further incubated at room temperature for 15 min. […] The enzyme reaction was started by adding 6.8 µL of the substrate solution, then incubated at 37°C for 20 min, and terminated by adding 30 µL of 0.6 M trichloroacetic acid. After brief centrifugation, 5 µL of 200 mM NaIO4 (sodium meta-periodate) in 9 N H3PO4 was added to oxidize the enzymatic product and incubate at 25°C for 20 min. […] The absorbance of the pink supernatant was read at 549 nm with the microplate reader (Infinite 200 PRO, TECAN, Männedorf, Switzerland) to calculate DAHP production with the molar extinction coefficient at 549 nm (ε = 549 nm) of 4.5 × 10^4/M/cm. […]

[10] = system: DHS activities from pea (Pisum sativum) leaves; design: method as in Reinink and Borstlap, 1982; conditions: 1 mM; ref Reinink and Borstlap, 1982; cited from earlier work
[11] = system: shikimate accumulation in Col-0 and dhs mutants; experiment: Shikimate content with and without Tyr and/or glyphosate treatment; format: in vivo, Arabidopsis thaliana; conditions: 300 µM, without glyphosate; all genotypes except dhs1
Protocol: Approximately 50–80 mg of fully expanded mature leaves were pooled from multiple plants at the same developmental stages and ground in 800 µL of extraction buffer (v/v 2:1 of methanol and chloroform with 2 µg/mL isovitexin [Millipore-Sigma], 100 µM norvaline [Thermo Fisher Scientific], and 1.25 µg/mL Tocol [Matreya LLC, State College, PA, USA] for internal standards for soluble metabolite analysis by LC–MS and GC–MS and tocopherol analysis by GC–MS, respectively), using 1600 MiniG Tissue Homogenizer (SPEX SamplePrep, Metuchen, USA) and 3-mm glass beads. After adding 600 µL of H2O and then 250 µL of chloroform, polar phase containing amino acids, and non‐polar phase containing tocopherols were separated by centrifugation, dried in new tubes. To detect Trp and AAA-derived metabolites, LC–MS analysis was carried out as previous described with some modification ([Alseekh et al., 2015]). The dried metabolites were resuspended in 70 µL of 80% LC–MS-grade methanol. Two microliters of the sample was injected onto a HSS T3 C18 reversed phase column (100 × 2.1 mm i.d., 1.8-μm particle size; Waters, Milford, CT, USA) and eluted using a 20-min gradient comprising 0.1% formic acid in LC–MS-grade water (solvent A) and 0.1% formic acid in LC–MS-grade acetonitrile (solvent B) at a flow rate of 0.4 mL/min and column temperature of 40°C. The binary linear gradient with following ratios of solvent B was used: 0–1 min, 1%; 1–13 min, 1%–35%; 13–14.5 min, 35%–70%; 14.5–15.5 min, 70%–99%, 15.5–17 min, 99%; 17–17.5 min, 99%–[…]; 17.5–20 min, 1%. The spectra were recorded using full scan mode of negative ion detection, covering a mass range from m/z 100 to 1,500. The resolution was set to 25,000 and the maximum scan time was set to 250 ms. The sheath gas was set to a value of 60, while the auxiliary gas was set to 35. The transfer capillary temperature was set to 150°C, while the heater temperature was adjusted to 300°C. The spray voltage was fixed at 3 kV, with a capillary voltage and a skimmer voltage of 25 and 15 V, respectively. Retention times, MS spectra, and associated peak intensities were extracted from the raw files using the Xcalibur software (Thermo Fisher Scientific). […] For anthocyanin quantification, the polar phase isolated for amino acid analysis was diluted 10 times with water in a new tube. […] Shikimate level was spectrometrically determined based on previous literatures ([Shaner et al., 2005]; [Sharkhuu et al., 2014]). […] After stopping the reaction by adding 100 µL of a termination solution containing 0.6 N sodium hydroxide and 0.22 M sodium sulfite, the absorption at 380 nm was immediately measured with the microplate reader. Shikimate concentration was determined by comparing with a dilution series of the shikimate standards.

[12] = system: Arabidopsis Col-0 and dhs mutants; format: in vivo, Arabidopsis thaliana; conditions: 300 µM, 14 days after germination
Protocol: as §5

[13] = read-out: IC50 of root growth impairment
[14] = read-out: concentration giving 50% growth inhibition

AthDHS3, sequence (Q9SK84 entry or part of it): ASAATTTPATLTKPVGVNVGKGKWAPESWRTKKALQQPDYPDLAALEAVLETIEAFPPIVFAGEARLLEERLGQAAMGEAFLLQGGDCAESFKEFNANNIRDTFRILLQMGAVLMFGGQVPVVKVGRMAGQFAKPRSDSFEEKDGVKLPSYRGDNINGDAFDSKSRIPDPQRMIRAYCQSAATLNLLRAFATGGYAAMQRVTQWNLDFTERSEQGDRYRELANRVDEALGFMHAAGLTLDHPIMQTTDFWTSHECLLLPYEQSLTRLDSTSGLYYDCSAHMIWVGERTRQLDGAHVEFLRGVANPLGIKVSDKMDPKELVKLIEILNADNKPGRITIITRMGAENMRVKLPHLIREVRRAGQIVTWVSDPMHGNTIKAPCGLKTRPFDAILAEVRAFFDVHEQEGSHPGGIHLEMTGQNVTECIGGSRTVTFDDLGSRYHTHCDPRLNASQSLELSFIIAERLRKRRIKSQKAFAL
T2 sequence (Q00218 34-507): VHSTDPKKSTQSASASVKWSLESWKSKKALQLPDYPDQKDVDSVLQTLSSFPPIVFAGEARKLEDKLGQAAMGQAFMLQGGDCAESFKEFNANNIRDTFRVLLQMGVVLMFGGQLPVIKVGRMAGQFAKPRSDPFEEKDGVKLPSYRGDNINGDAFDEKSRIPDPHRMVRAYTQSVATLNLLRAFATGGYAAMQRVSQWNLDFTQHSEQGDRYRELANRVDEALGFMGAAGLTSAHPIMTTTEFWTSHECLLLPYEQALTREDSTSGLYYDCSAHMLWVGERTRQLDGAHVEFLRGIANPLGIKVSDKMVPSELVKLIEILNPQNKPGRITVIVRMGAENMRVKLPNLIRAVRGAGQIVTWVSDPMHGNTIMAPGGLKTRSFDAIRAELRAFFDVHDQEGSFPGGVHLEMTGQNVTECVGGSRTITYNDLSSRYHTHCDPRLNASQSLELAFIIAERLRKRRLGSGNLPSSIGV
T1 sequence (P29976 49-525): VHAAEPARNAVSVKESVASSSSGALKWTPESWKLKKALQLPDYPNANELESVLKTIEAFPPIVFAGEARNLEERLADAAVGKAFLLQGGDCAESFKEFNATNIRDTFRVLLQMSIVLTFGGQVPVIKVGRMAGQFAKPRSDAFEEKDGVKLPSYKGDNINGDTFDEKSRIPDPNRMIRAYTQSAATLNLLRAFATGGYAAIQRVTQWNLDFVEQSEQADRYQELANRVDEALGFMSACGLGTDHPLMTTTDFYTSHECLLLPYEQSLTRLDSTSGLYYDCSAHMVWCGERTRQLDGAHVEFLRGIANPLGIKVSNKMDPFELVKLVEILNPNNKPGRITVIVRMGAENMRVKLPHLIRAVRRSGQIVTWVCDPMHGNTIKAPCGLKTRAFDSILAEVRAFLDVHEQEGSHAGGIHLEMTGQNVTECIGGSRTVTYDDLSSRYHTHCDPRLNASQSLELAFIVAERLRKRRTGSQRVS

O=C(O)/C=C/c1ccc(O)c(O)c1 [caffeate]
effect on total DHS activity of spinach mature leaf extract [1]: more than half
effect on AthDHS1 activity (in words) (AthDHS1): completely inhibited
IC50 (AthDHS1): 49.7 µM
effect on DHS activity of de-etiolated spinach seedling extract [2]: significantly reduced
IC50 (AthDHS3): 53.4 µM
effect on AthDHS3 activity (in words) (AthDHS3): completely inhibited
effect on total DHS activity of Arabidopsis mature leaf extract [3]: more than half

C=C(O[C@@H]1C=C(C(=O)O)C=C[C@H]1O)C(=O)O [chorismate]
effect on AthDHS2 activity (in words) (AthDHS2; 1 mM effector): completely inhibited
IC50 (AthDHS2): 52.5 µM
effect on total DHS activity of spinach mature leaf extract [1]: more than half
effect on AthDHS1 activity (in words) (AthDHS1): completely inhibited
IC50 (AthDHS1): 97.3 µM
effect on DHS activity of de-etiolated spinach seedling extract [2]: significantly reduced
effect on AthDHS3 activity (in words) (AthDHS3): completely inhibited
IC50 (AthDHS3; varied effector concentrations, read-out: IC50 of AthDHS3 inhibition): 83 µM
effect on total DHS activity of Arabidopsis mature leaf extract [3]: more than half

N[C@@H](CC1(C(=O)O)C=CC(O)C=C1)C(=O)O (some centres unmarked) [arogenate]
inhibition of AthDHS2 activity (AthDHS2; 1 mM effector): ~75%
concentration beyond which DHS activity is inhibited [4]: > 0.4 mM
effect on AthDHS1 activity (in words) (AthDHS1): did not significantly affect
concentration beyond which DHS activity is inhibited [5]: > 1 mM
effect on AthDHS3 activity (in words) (AthDHS3): did not significantly affect

N[C@@H](Cc1c[nH]c2ccccc12)C(=O)O [Trp, L-tryptophan]
IC50 (AthDHS2): 225 µM
IC50 [6, 13]: 140 µM
IC50 [6, 14]: > 300 µM
concentration that specifically impaired root growth ([6]; dhs3 mutant): ≥ 100 µM
inhibition of DHS activity [7]: 50%
effect on AthDHS1 activity (in words) (AthDHS1): significantly activated
effect on DHS activity [8]: activation
effect on AthDHS3 activity (in words) (AthDHS3): activated
observed DHS activity of the enzyme mixtures versus theoretically calculated activity [9]: significantly higher than theoretically calculated activities

N[C@@H](Cc1ccc(O)cc1)C(=O)O [Tyr, L-tyrosine]
IC50 [6, 13]: 79 µM
IC50 [6, 14]: > 300 µM
concentration that specifically impaired root growth ([6]; dhs1 mutant): ≥ 100 µM
effect of the added compound on Trp-mediated root growth inhibition of dhs3 ([6]; media with 300 µM Trp, AAAs added at 300 µM, shikimate at 500 µM): not recovered
effect on AthDHS1 activity (in words) (AthDHS1): significantly activated
inhibition of DHS activity [10]: 60%
effect on shikimate level [11]: did not alter the shikimate level
phenotype of newly growing leaves ([12]; Col-0 and dhs3): cup-like shape
shoot phenotype ([12]; dhs1): very small and pale
cup-shaped leaf phenotype ([12]; dhs2): did not appear
observed DHS activity of the enzyme mixtures versus theoretically calculated activity [9]: significantly higher than theoretically calculated activities
